Measurements: ChEMBL document CHEMBL4364255, “3,4-Dideoxy-3,3,4,4-tetrafluoro- and 4-OH epimeric 3-deoxy-3,3-difluoro-α-GalCer analogues: Synthesis and biological evaluation on human iNKT cells stimulation” (Eur J Med Chem, 2019)
The source made the active and inactive calls. The rule behind the calls is not given here.

Assays:
Type in all cases: cell-based
[1] = target: T1, Antigen-presenting glycoprotein CD1d (Homo sapiens) (UniProt P15813); test: Binding affinity to human CD1d expressed in human HeLa cells assessed as increase in IFNgamma production at 10 uM to 10^-4 uM incubated overnight prior to iNKT MAD11 cells addition to CD1d-compound mixture and measured after 6 hrs by ELISA
T1 sequence (whole entry): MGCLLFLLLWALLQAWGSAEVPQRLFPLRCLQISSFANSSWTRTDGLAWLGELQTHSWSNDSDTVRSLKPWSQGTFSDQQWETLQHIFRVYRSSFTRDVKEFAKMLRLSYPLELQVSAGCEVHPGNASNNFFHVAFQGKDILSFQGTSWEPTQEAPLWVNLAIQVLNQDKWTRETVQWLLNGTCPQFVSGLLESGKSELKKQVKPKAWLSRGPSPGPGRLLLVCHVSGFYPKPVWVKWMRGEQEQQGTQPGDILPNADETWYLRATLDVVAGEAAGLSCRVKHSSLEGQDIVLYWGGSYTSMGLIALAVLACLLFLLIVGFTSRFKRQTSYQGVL

[2] = test system: iNKT; test: Effect on human iNKT MAD11 cells stimulation assessed as increase in IL-13 production pretreated with HeLa cells for overnight prior to iNKT MAD11 cells addition and measured after 24 hrs by ELISA
[3] = test system: iNKT; test: Effect on human iNKT MAD11 cells stimulation assessed as increase in IFNgamma production pretreated with HeLa cells for overnight prior to iNKT MAD11 cells addition and measured after 6 hrs by ELISA
[4] = target: T1, Antigen-presenting glycoprotein CD1d (Homo sapiens); test: Binding affinity to human CD1d expressed in human HeLa cells assessed as increase in IL-13 production at 10 uM to 10^-4 uM incubated overnight prior to iNKT MAD11 cells addition to CD1d-compound mixture and measured after 24 hrs by ELISA

| Compound | Activity [1] | Activity [2] | Activity [3] | Activity [4] |
| --- | --- | --- | --- | --- |
| CCCCCCCCCCCCCCCCCCCCCCCCCC(=O)N[C@@H](CO[C@H]1O[C@H](CO)[C@H](O)[C@H](O)[C@H]1O)C(F)(F)[C@@H](O)CCCCCCCCCCCCCC | Active | Non-Toxic | Non-Toxic | Active |
| CCCCCCCCCCCCCCCCCCCCCCCCCC(=O)N[C@@H](CO[C@H]1O[C@H](CO)[C@H](O)[C@H](O)[C@H]1O)C(F)(F)C(F)(F)CCCCCCCCCCCCCC | Active | Non-Toxic | Non-Toxic | Active |
| CCCCCCCCCCCCCCCCCCCCCCCCCC(=O)N[C@@H](CO[C@H]1O[C@H](CO)[C@H](O)[C@H](O)[C@H]1O)[C@H](O)[C@H](O)CCCCCCCCCCCCCC [RGI-7000] | Active | Non-Toxic | Non-Toxic | Active |
| CCCCCCCCCCCCCCCCCCCCCCCCCC(=O)N[C@@H](CO[C@H]1O[C@H](CO)[C@H](O)[C@H](O)[C@H]1O)C(F)(F)[C@H](O)CCCCCCCCCCCCCC | Active | Non-Toxic | Non-Toxic | Active |
